Experimental data taken from patent publication US20060188938A1, “Compounds for inhibiting beta-amyloid production and methods of identifying the compounds” (priority 2005, published 2006).

Tested on: β-amyloid production by 7W WT APP751 CHO cells
Assay: Screening of dihydropyridine compounds (Maybridge), Aβ1-40 and Aβ1-42 ELISA (Example 2)
Format: cell-based, Chinese hamster
Details: 30 μM, 24 hours (FIGS. 5A-B)
Procedure: Dihydropyridine compounds were obtained from Maybridge (England). Each compound was dissolved in DMSO. 7W WT APP751 CHO cells overexpressing APP751 were plated into 96-well culture plates in 200 μL of culture medium. Each compound from the library was added to confluent cells to a final concentration of 30 μM. After 24 hours of treatment, culture medium was collected and dissolved 10-fold and 2-fold for measuring the level of Aβ1-40 and Aβ1-42, respectively. Aβ1-40 and Aβ1-42 were determined using commercially available ELISAs (Biosource, CA), following the recommendations of the manufacturer.

Compound | concentration of Aβ1-40 compared to controls | concentration of Aβ1-42 compared to controls | concentration of total β-amyloid (Aβ1-40+Aβ1-42) compared to controls
CCOC(=O)C1=C(C)NC(C)=C(C(=O)OCC)C1c1ccc(C)cc1 [JFD 03282, diethyl 2,6-dimethyl-4-(4-methylphenyl)-1,4-dihydropyridine-3,5-dicarboxylate] | significantly decreased | significantly decreased | significantly decreased
O=C1CC(c2ccccc2)CC(=O)N1c1ccc(Oc2ccc(Cl)cc2)cc1 [PD 00463, 1-[4-(4-chlorophenoxy)phenyl]-4-phenyldihydropyridine-2,6(1H,3H)-dione] | significantly decreased | significantly decreased | significantly decreased
CCOC(=O)C1=C(C)NC(C)=C(C(=O)OCC)C1c1ccc(Br)cc1 [JFD 01209, diethyl 4-(4-bromophenyl)-2,6-dimethyl-1,4-dihydropyridine-3,5-dicarboxylate] | significantly decreased | significantly decreased | significantly decreased
CCOC(=O)C1=C(C)NC(C)=C(C(=O)OCC)C1c1ccc(OC)cc1Cl [RJC 03413, diethyl 4-(2-chloro-4-methoxyphenyl)-2,6-dimethyl-1,4-dihydro-3,5-pyridinedicarboxylate] | significantly decreased | – | significantly decreased
N#Cc1c(-c2cccs2)cc(-c2ccccc2)[nH]c1=O [HTS 10306, 2-oxo-6-phenyl-4-(2-thienyl)-1,2-dihydro-3-pyridinecarbonitrile] | significantly decreased | significantly decreased | significantly decreased
CCOC(=O)C1=C(C)NC(C)=C(C(=O)OCC)C1c1ccc([N+](=O)[O-])cc1 [JFD 03266, diethyl 2,6-dimethyl-4-(4-nitrophenyl)-1,4-dihydropyridine-3,5-dicarboxylate] | significantly decreased | – | significantly decreased
CCOC(=O)C1=C(C)NC(C)=C(C(=O)OCC)C1c1cccc([N+](=O)[O-])c1 [XBX 00343, diethyl 2,6-dimethyl-4-(3-nitrophenyl)-1,4-dihydropyridine-3,5-dicarboxylate] | significantly decreased | – | significantly decreased
O=C1C=C(c2ccccc2)CN(C2CCCCC2)C1=O [HTS 01512, 1-cyclohexyl-5-phenyl-1,6-dihydro-2,3-pyridinedione] | significantly decreased | significantly decreased | significantly decreased
COC(=O)C1=C(C)NC(C)=C(C(=O)OC)C1c1ccc(-c2ccsc2C(=O)OC)o1 [SEW 02070, dimethyl 4-{5-[2-(methoxycarbonyl)-3-thienyl]-2-furyl}-2,6-dimethyl-1,4-dihydropyridine-3,5-dicarboxylate] | significantly decreased | – | significantly decreased
CCOC(=O)C1=C(C)NC(C)=C(C(=O)OCC)C1c1cccc(Cl)c1 [JFD 03274, diethyl 4-(3-chlorophenyl)-2,6-dimethyl-1,4-dihydropyridine-3,5-dicarboxylate] | significantly decreased | – | significantly decreased
CCOC(=O)C1=C(C)NC(C)=C(C(=O)OCC)C1c1ccc(Cl)cc1 [BTB 14328, diethyl 4-(4-chlorophenyl)-2,6-dimethyl-1,4-dihydropyridine-3,5-dicarboxylate] | significantly decreased | significantly decreased | significantly decreased
N#Cc1c(-c2cn(-c3ccccc3)nc2-c2ccccc2)cc(-c2ccccc2)[nH]c1=O [HTS 07578, 4-(1,3-diphenyl-1H-pyrazol-4-yl)-2-oxo-6-phenyl-1,2-dihydro-3-pyridinecarbonitrile] | significantly decreased | significantly decreased | significantly decreased
COC(=O)C1=C(C)NC(C)=C(C(=O)OC)C1c1ccc(Cl)c(Cl)c1 [JFD 03293, dimethyl 4-(3,4-dichlorophenyl)-2,6-dimethyl-1,4-dihydropyridine-3,5-dicarboxylate] | significantly decreased | significantly decreased | significantly decreased
CCOC(=O)C1=C(C)NC(C)=C(C(=O)OCC)C1c1ccc(Cl)cc1Cl [RJC 03403, diethyl 4-(2,4-dichlorophenyl)-2,6-dimethyl-1,4-dihydro-3,5-pyridinedicarboxylate] | significantly decreased | significantly decreased | significantly decreased
CCOC(=O)C1=C(C)NC(C)=C(C(=O)OCC)C1c1ccccc1Cl [JFD 03305, diethyl 4-(2-chlorophenyl)-2,6-dimethyl-1,4-dihydropyridine-3,5-dicarboxylate] | significantly decreased | significantly decreased | significantly decreased
CCOC(=O)C1=C(C)NC(C)=C(C(=O)OCC)C1c1ccc(Cl)c(Cl)c1 [JFD 03294, diethyl 4-(3,4-dichlorophenyl)-2,6-dimethyl-1,4-dihydropyridine-3,5-dicarboxylate] | significantly decreased | significantly decreased | significantly decreased
CCOC(=O)C1=C(C)NC(C)=C(C(=O)OCC)C1c1ccc(-c2cc(C(F)(F)F)cc(C(F)(F)F)c2)o1 [CD 04170, diethyl 4-{5-[3,5-di(trifluoromethyl)phenyl]-2-furyl}-2,6-dimethyl-1,4-dihydro-pyridine-3,5-dicarboxylate] | significantly decreased | significantly decreased | significantly decreased
COC(=O)C1=C(C)NC(C)=C(C(=O)OC)C1c1ccc(Cl)cc1Cl [RJC 03423, dimethyl 4-(2,4-dichlorophenyl)-2,6-dimethyl-1,4-dihydro-3,5-pyridinedicarboxylate] | significantly decreased | significantly decreased | significantly decreased
CC1=C(C#N)C(c2ccc(Cl)c(Cl)c2)C(C#N)=C(C)N1 [JFD 03292, 4-(3,4-dichlorophenyl)-2,6-dimethyl-1,4-dihydropyridine-3,5-dicarbonitrile] | significantly decreased | – | significantly decreased
CCOC(=O)C1=C(C)NC(C)=C(C(=O)OCC)C1c1ccccc1[N+](=O)[O-] [JFD 03311, diethyl 2,6-dimethyl-4-(2-nitrophenyl)-1,4-dihydropyridine-3,5-dicarboxylate] | significantly decreased | – | significantly decreased
CCOC(=O)C1=C(C)NC(C)=C(C(=O)OCC)C1c1ccc(F)cc1 [JFD 03318, diethyl 4-(4-fluorophenyl)-2,6-dimethyl-1,4-dihydropyridine-3,5-dicarboxylate] | significantly decreased | significantly decreased | significantly decreased
CCOC(=O)C1=C(C)NC(C)=C(C(=O)OCC)C1c1ccc(-c2ccccc2C(F)(F)F)o1 [RJC 03405, diethyl 2,6-dimethyl-4-{5-[2-(trifluoromethyl)phenyl]-2-furyl}-1,4-dihydro-3,5-pyridinedicarboxylate] | significantly decreased | – | significantly decreased
